US9579358B2, “Compositions for binding to amyloid proteins” (LANCASTER UNIVERSITY BUSINESS ENTERPRISES LIMITED, priority 2011, dated 2017)
Where two headings read alike, the source gives them in different places.

Tests used:
[1] = target: T1, Aβ42 (Homo sapiens, UniProt P05067); experiment: Thioflavin T (ThT) assay for Aβ fibrils; type: biochemical; conditions: Table 3, 1:2 molar ratio to Aβ
T1 construct: Recombinant Aβ42, Ultrapure, was purchased from rPeptide, Bogart, Ga., USA; purchased rPeptide, Bogart, Ga., USA
T1 sequence (P05067 672-713 limits assumed): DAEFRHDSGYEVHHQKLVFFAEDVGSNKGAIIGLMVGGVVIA
Experimental: This method was the same as that published previously. Briefly, 60 μl samples of solutions containing Aβ42 (25 μM), ThT (15 μM) and between 0 and 125 μM RI-OR2 or RI-OR2-TAT, in 10 mM phosphate buffered saline (PBS), pH 7.4, were incubated in sealed, black, clear-bottomed 384-well plates (Corning). ThT fluorescence was monitored every 10 mins (λex=442 nm, λem=483 nm) for 48 h at 30° C. in a Biotek Synergy 2 plate reader.

[2] = target: immobilized Aβ1-42 monomers and fibrils (Homo sapiens, UniProt P05067); conditions: cited from earlier work
Chain of immobilized Aβ1-42 monomers and fibrils (P05067 672-713 limits assumed): as above

Ac-rGffvlkGr-NH2 [RI-OR2, reference compound]
% of control ([1]; 48 hrs, Aβ alone = 100): 35% | RFU at 48 hours ([1]; Aβ 25 μM): 72265 RFU | Kd ([2]; previously reported value, read-out: Kd, binding to Aβ42 fibrils): 9.5 µM | Kd ([2]; published SPR data (28), read-out: binding affinity (Kd) for interaction with Aβ monomers and fibrils): 25 to 30 µM
